# Results: patent US9867923B2, “Reducing soluble urokinase receptor in the circulation” (University of Miami, priority 2011, dated 2018)
# What was measured:
# [1] = Retrospective study of recurrent or de novo FSGS after renal transplantation: renal parameters pre-post treatment; assay type: in vivo, human; conditions: for Mean Foot Process Effacement, Mean Post ± SD / Proteinuria, Mean Post ± SD / Serum Creatinine, Mean Post ± SD: post-treatment; for Mean Foot Process Effacement, Mean Pre ± SD / Proteinuria, Mean Pre ± SD / Serum Creatinine, Mean Pre ± SD: pre-treatment
# Protocol: Treatment with plasmapheresis (PXP) started at the time of FSGS recurrence or de novo manifesting by the onset or worsening of proteinuria. Subjects completed a median of 21 plasmapheresis sessions (IQR: 10-23). Twelve subjects were refractory to plasmapheresis and received adjunctive rituximab infusion. Eight (32%) subjects had complete remission, and an additional 12 (48%) individuals achieved partial remission. With treatment (Table 5), the overall mean serum creatinine improved from 3.1 mg/dl±2.3 mg/dl to 2.1 mg/dl±1.2 mg/dl (P=0.07), and the mean eGFR improved from 35.6 ml/min±19.4 ml/min to 46.0 ml/min±24.3 ml/min per 1.73 m^2 (P=0.01). Additionally, among responders the serum creatinine declined further from 3.1 mg/dl±2.5 mg/dl to 1.9 mg/dl±0.6 mg/dl (P=0.48).
# We conducted a retrospective observational study of all adult renal transplant recipients who underwent renal transplantation between Jan. 1, 2003 to Dec. 31, 2011, and developed recurrent or de novo FSGS after kidney transplantation at a single tertiary hospital. We identified 105 renal transplant recipients aged 18 years and older. Ninety-three had native kidney biopsy-proven FSGS; 12 having a probable FSGS diagnosis. Twenty-five individuals developed de novo FSGS (n=4) and recurrent FSGS (n=21) following renal transplantation. Recurrent FSGS was defined by the presence of proteinuria (more than 1 g/24 hours) in individuals who were anuric prior to renal transplantation ([…]) or worsening proteinuria among those who were not anuric prior to renal transplantation (n=15). De novo FSGS was defined as the new onset of proteinuria following renal transplantation in a recipient whose primary cause of ESRD was not attributed to FSGS. The diagnosis was confirmed by the presence of podocyte foot process effacement on the allograft biopsy obtained prior to or within 14 days of treatment commencement. The Johns Hopkins University School of Medicine Institutional Review Board approved this study.
# Socio-demographic and clinical data were abstracted from patient medical records using double data entry from the time of renal transplantation to three years following renal transplantation or the last available clinical follow-up. Donor clinical characteristics collected included donor vital status, relatedness to the recipient, and ABO-compatibility with recipient. Recipient clinical characteristics included age at FSGS diagnosis, primary cause of ESRD, number of prior renal transplantations, duration among those receiving dialysis, serum creatinine and proteinuria defined by urine protein-to-creatinine ratio. Glomerular filtration rate (eGFR) was estimated using the CKD-Epi equation which adjusts for age, gender, and race (Levey et al., Ann. Intern. Med. 150:604-612, 2009). Recipients were treated with plasmapheresis. Those with persistently significant proteinuria were also given one or two rituximab infusions. Complete response was defined by a decrease in proteinuria to below 1 g/g upon completion of the treatment course and/or on the last available quantification of proteinuria. Partial response to therapy was defined as a decline in proteinuria at the end of treatment by 50% from the peak proteinuria level, but with proteinuria remaining 1 g/g or greater at the end of treatment. Renal histopathology was assessed by a renal pathologist using light microscopy, immunofluorescence and electron microscopy. The degree of podocyte foot process effacement was based upon biopsy reports as well as secondary assessments of the electron microscopy by a second renal pathologist blinded to the original biopsy report and the recipient's outcome. These two assessments were then averaged to obtain the mean podocyte foot process effacement, which was categorized as <25% (mild), 25%-74% (moderate), and 75% or greater (severe). Baseline electron microscopy results were obtained from renal biopsies performed prior or shortly after the initiation of therapy. […]
# circulating suPAR [2] = assay: Serum suPAR in FSGS-CT cohort by treatment arm; assay type: in vivo, human; conditions: for change in serum suPAR level from baseline to 26 weeks: FSGS-CT patients, MMF arm is MMF/dexamethasone
# Protocol: (§1) To explore the effect of treatment on suPAR levels in the circulation, samples were analyzed in patients who were randomly assigned to either the CSA or MMF/dexamethasone arm of the trial. At baseline, there was no difference between the two treatment arms in age at sampling, age at disease onset, gender, race, proteinuria, serum albumin, serum creatinine, or eGFR (FIG. 7) as well as circulating suPAR levels by univariate analysis. […] When examining the alteration from baseline to 26 weeks, suPAR level was increased in CSA arm, but decreased in MMF arm and the changes in suPAR levels between the two arms were significant (P<0.05).
# FSGS-CT is a randomized controlled study that compared the efficacy of cyclosporine (CSA) to the combination of mycophenolate mofetil (MMF) and dexamethasone. Key inclusion criteria were age 2-40 years, eGFR>40 ml/min per 1.73 m^2, biopsy-proven FSGS, and resistance to corticosteroid therapy. Exclusion criteria included secondary FSGS, obesity, or prior experimental therapy. All subjects received lisinopril or losartan in those who were intolerant of angiotensin converting enzyme inhibitor. Subjects were treated for 52 weeks. The primary outcome was normalization of proteinuria defined as a urine protein:creatinine ratio (Up/c)<0.2 in a first morning urine sample after 52 weeks of active treatment with the study medication(s). The main secondary outcome was based on the level of proteinuria at 78 weeks, six months after discontinuation of the study drugs. Subjects were seen 11 times during the treatment period and, at each visit, blood pressure was measured and blood and urine were obtained to determine serum creatinine, eGFR, albumin, cholesterol concentration, and proteinuria (Gipson et al., Kidney Int'l 80:868-878, 2011). The serum samples collected at baseline (W01) and 26 weeks (W26) on treatment (n=35 in each arm) were retrieved from the NIDDK Biorepository for suPAR measurement.
# (§2) The measurement of serum suPAR was performed using a Quantikine human uPAR immunoassay kit (R&D Systems).
# [3] = Proteinuria (Up/c) and serum creatinine in FSGS-CT cohort by treatment arm; assay type: in vivo, human
# Protocol: as §1
# FSGS-CT is a randomized controlled study that compared the efficacy of cyclosporine (CSA) to the combination of mycophenolate mofetil (MMF) and dexamethasone. Key inclusion criteria were age 2-40 years, eGFR>40 ml/min per 1.73 m^2, biopsy-proven FSGS, and resistance to corticosteroid therapy. Exclusion criteria included secondary FSGS, obesity, or prior experimental therapy. […] Subjects were seen 11 times during the treatment period and, at each visit, blood pressure was measured and blood and urine were obtained to determine serum creatinine, eGFR, albumin, cholesterol concentration, and proteinuria (Gipson et al., Kidney Int'l 80:868-878, 2011). […]
# circulating suPAR [4] = assay: Circulating suPAR in PodoNet cohort by medication; assay type: in vivo, human; conditions: medication at time of blood sampling
# From the text: In contrast to FSGS-CT, where patients were randomly assigned to either CSA or MMF therapy, treatment in PodoNet was at the discretion of the attending physicians. For the purpose of this analysis, patients were grouped according to the medication they received at the time of blood sampling: MMF or a calcineurin inhibitor. […] Overall, there was no significant difference between the two groups based on their demographic features or laboratory measurements (e.g., proteinuria, serum albumin, eGFR, and serum creatinine).
# PodoNet is a consortium for clinical, genetic, and experimental study of steroid-resistant nephrotic syndrome (SRNS). The inclusion criteria are children (age 0-18 years old) with SRNS based on management protocols at the participating medical centers and adults with familial SRNS. Patients who were included into this study had biopsy proven FSGS (n=94). The treatment of subjects was clinically determined and managed by their attending physician.
# as §2
# [5] = cited from earlier work
compound,measurement,setting,value
PXP + rituximab: plasmapheresis (PXP) with adjunctive rituximab infusion in subjects refractory to plasmapheresis,"Proteinuria, Most recent","[1]; overall, n = 12",7 ± 12.7 g/g
same,"Proteinuria, Peak","[1]; overall, n = 12",12.5 ± 12.7 g/g
same,"Mean Foot Process Effacement, Mean Post ± SD","[1]; overall, n = 10",21 ± 27%
same,"Proteinuria, Mean Post ± SD","[1]; overall, n = 12",6.6 ± 12.5 g/g
same,"Serum Creatinine, Mean Post ± SD","[1]; overall, n = 12",2.1 ± 0.88 mg/dL
same,"Mean Foot Process Effacement, Mean Pre ± SD","[1]; overall, n = 10",49 ± 32%
same,"Proteinuria, Mean Pre ± SD","[1]; overall, n = 12",4.4 ± 3.1 g/g
same,"Serum Creatinine, Mean Pre ± SD","[1]; overall, n = 12",3 ± 2.7 mg/dL
same,"Proteinuria, Last","[1]; responders, n = 9",1.7 ± 1.2 g/g
same,"Proteinuria, Peak","[1]; responders, n = 9",7.6 ± 4.9 g/g
same,"Mean Foot Process Effacement, Mean Post ± SD","[1]; responders, n = 7",14 ± 14%
same,"Proteinuria, Mean Post ± SD","[1]; responders, n = 9",1.9 ± 1.4 g/g
same,"Serum Creatinine, Mean Post ± SD","[1]; responders, n = 12",2.1 ± 0.7 mg/dL
same,"Mean Foot Process Effacement, Mean Pre ± SD","[1]; responders, n = 7",34 ± 27%
same,"Proteinuria, Mean Pre ± SD","[1]; responders, n = 9",4.1 ± 3.4 g/g
same,"Serum Creatinine, Mean Pre ± SD","[1]; responders, n = 12",3 ± 2.96 mg/dL
"COc1c(C)c2c(c(O)c1C/C=C(\C)CCC(=O)OCCN1CCOCC1)C(=O)OC2 [MMF, mycophenolate mofetil]",change in serum suPAR level from baseline to 26 weeks,circulating suPAR [2],decreased
same,change in serum suPAR level from baseline to 26 weeks,circulating suPAR [2]; listed as mycophenolate mofetil,decreased significantly
same,serum suPAR level after treatment,"circulating suPAR [2]; FSGS-CT, MMF-treated patients, mean ± SEM (±264), P<0.01",4113 pg/mL
same,serum suPAR level before treatment,"circulating suPAR [2]; FSGS-CT, MMF-treated patients, mean ± SEM (±292)",5064 pg/mL
same,"decrease in serum creatinine from baseline to 26 weeks, MMF arm compared to CSA arm",[3]; P<0.001,significantly greater decrease
same,"decrease in Up/c from baseline to 26 weeks, MMF arm compared to CSA arm",[3]; P<0.05,significantly greater decrease
same,"circulating suPAR level, patients who received the medication versus those who did not",circulating suPAR [4],significantly lower
O=C[C@H](O)[C@@H](O)[C@@H](O)[C@H](O)CO [galactose],proteinuria outcome,"[5]; dialysis-dependent patient (Savin et al., 2008)",no improvement of proteinuria
same,nephrotic syndrome outcome,"[5]; oral galactose, patient resistant to corticosteroids, immunosuppression and plasmapheresis (De Smet et al., 2009)",remission for more than two years
